Results as given in US20240335402A1, “BIODEGRADABLE ANTI-INFECTIVE FORMULATIONS” (New Mexico Tech University Research Park Corporation, priority 2023, published 2024).

Test system: colistin (polymyxin E, or PME) resistant bacterium S. maltophilia
Assay: Spot test on lawn of colistin resistant bacterium
Type: cell-based
Settings: 10 μL spotted, 37° C., 2 days

O=C([O-])CC(O)(CC(=O)[O-])C(=O)[O-].[Na+].[Na+].[Na+] [Trisodium citrate]
activity / kill of S. maltophilia lawn: did not work as well as CTAC
